Assay results taken from patent publication US20260200982A1, “HER RECEPTOR DERIVED PEPTIDES AND METHODS OF USE THEREOF” (Ramot at Tel-Aviv University Ltd., priority 2022, published 2026).
Entries after “also recorded” stand apart in the source; their conditions may differ. The star is where a group is joined. Myristoyl = CCCCCCCCCCCCCC(=O)*

Tests used:
nucleolin [1] = target: T1, nucleolin (Homo sapiens, UniProt P19338); assay: Western blot analysis of dissected Panc-1 tumors, nucleolin; assay type: in vivo; parameters: endogenous in cells; host or cells: Panc-1; details: Panc-1 tumor lysates; FIGS. 10A-C
Method: (§1) Pancreatic Tumor Growth in Nude Mice—The study was conducted according to the NIH Guidelines for Use and Care of Laboratory Animals and following the approval by Animal Care Committee of the Tel Aviv University. Nude CD1-Nu mice (25-30 g) housed in barrier facilities on a 12-h light/dark cycle one week prior to the injection of tumor cells (day zero). On day zero, 2×10^6 Panc 1 cells in 0.1 ml of PBS were implanted subcutaneously just above the right femoral joint. Tumor size was measured every 3-4 days. When the tumors were apparently seen and the calculated tumor size was 40 mm^3, the animals were divided randomly into two groups of mice (control vehicle treated and myr-NLS (SEQ ID NO: 5) treated; 8 mice per group). Treatment with the myr-NLS (SEQ ID NO: 5) was performed by intraperitoneal injection of 25 μg in 100 μl PBS (or 100 μl PBS for control mice) every day. Tumors size was measured 3 times a week. At the end of the experiment, the mice were sacrificed, and the tumors were dissected and used for further analysis.
(§2) Western blot analysis—Half of each tumor was homogenized in lysis buffer, using a Potter-Elvehjem manual homogenizer, cleared and kept at −70° C. […] Immunoreactive bands were detected with the enhanced chemiluminescence reagent (Luminata Crescendo Western HRP). Densitometric quantification analysis of the resulted images was done using ImageJ program. […]

Akt = assay: Western blot analysis of dissected Panc-1 tumors, Akt; assay type: in vivo, human; details: Panc-1 tumor lysates; FIGS. 10A-C
Method: as §1, §2

[2] = tested on: H-Ras-transformed Rat-1 cells (EJ cells); assay type: cell-based; details: FIG. 4C
Text: (§3) Cell lines—Human breast cancer cell lines SKBR3 [Peles E et al. EMBO J. (1993) 12(3):961-71] and MCF7 [Faigenbloom L et al., Mol Syst Biol. (2015) 11(12):845] and human glioblastoma U87 [Goldberg L et al. Cancer Res. (2006) 66(24):11709-17] cell line, as well as Rat-1 fibroblast cells and H-Ras-transformed Rat-1 cells (EJ cells) [Marom M et al. J Biol Chem. (1995) 270(38):22263-70] and human Panc-1 and MIA PaCa-2 pancreatic cell lines (Rak R et al. Oncoscience. 2014 1(1):39-48; Weisz B et al. Oncogene (1999) 18, 2579±2588) were all grown in Dulbecco's modified Eagle's medium (DMEM; Biological Industries, Beithaemek, Israel). Human colorectal cancer cell lines DLD-1 (ATTC Cat No. CCL-221), HCT-116 (ATTC Cat No. CCL-247) and LNCaP prostate cancer cells were grown in Roswell Park Memorial Institute 1640 (RPMI 1640) medium and McCoy's 5A media, respectively (Sigma-Aldrich). All media were supplemented with antibiotics and 10% heat-inactivated fetal bovine serum (FBS; Gibco). Human breast cell line MCF10A [Bott A et al. Oncotarget. […]
(§4) Methylene blue viability assay—Cells were plated in 96-wells plates at cell densities of 1.5×10^3 (EJ, DLD-1), 3×10^3 (Rat-1, HCT-116, U87), 5×10^3 (SKBR3, MCF7) and 6×10^3 (MCF10A) cells/well. […] IC-50 values were calculated using a non-linear regression model (logarithmic inhibitor vs. normalized response-variable slope) with the GraphPad Prism 6 software.

EGFR (ErbB1) [3] = assay: Immunoblotting of cell lysates, EGFR phosphorylation; assay type: cell-based, human; details: DLD-1 or Panc-1 cells; 24 hours; 25 μM and 10 μM; FIGS. 13A-B
Method: (§5) Lysate preparation and immunoblotting—Cells were seeded at cell densities of 1.5×10^5 (DLD-1), 1.8×10^5 (HCT-116) and 2.5×10^5 (SKBR3) cells/well, treated as indicated and grown for 24 hours. Following, cells were lysed in solubilization buffer; the lysates were cleared by centrifugation and a boiling gel sample buffer was added. Proteins were resolved by SDS-polyacrylamide gel electrophoresis through 10% polyacrylamide gels, and were electrophoretically transferred to nitrocellulose membranes. Membranes were blocked in TBST buffer containing 6% milk, and blotted with primary antibodies. Following, a secondary antibody linked to horseradish peroxidase was added. Immunoreactive bands were detected with the enhanced chemiluminescence reagent Immobilon Crescendo Western HRP substrate (WBLUR0100; Merck Millipore).

nucleolin [4] = target: T1, nucleolin; assay: Immunoblotting of cell lysates, nucleolin level; assay type: cell-based; parameters: endogenous in cells; host or cells: DLD-1, Panc-1; details: DLD-1 or Panc-1 cells; 24 hours; 25 μM and 10 μM; FIGS. 13A-B
Method: as §5

[5] = tested on: LNCaP prostate cancer cells; assay: Methylene blue viability assay, LNCaP; assay type: cell-based, human; details: 72 hours, FIGS. 4B and 4C, read-out: IC50 (cell viability)
Text: as §3, §4

[6] = tested on: Panc-1 (pancreatic cancer) tumor xenografts; assay: Pancreatic Tumor Growth in Nude Mice; assay type: in vivo; details: Panc-1 xenografts, 25 μg intraperitoneal daily, FIGS. 9A-C
Method: as §1

EGFR (ErbB1) [7] = assay: Western blot analysis of dissected Panc-1 tumors, EGFR; assay type: in vivo, human; details: Panc-1 tumor lysates
Method: as §1
Western blot analysis—Half of each tumor was homogenized in lysis buffer, using a Potter-Elvehjem manual homogenizer, cleared and kept at −70° C. The lysates (30 μg) were resolved by SDS-polyacrylamide gel electrophoresis (SDS-PAGE) and transferred to nitrocellulose membranes. The membranes were blocked with TBST buffer containing 6% milk and reacted with the indicated primary antibodies followed by second antibodies. Immunoreactive bands were detected with the enhanced chemiluminescence reagent (Luminata Crescendo Western HRP). Densitometric quantification analysis of the resulted images was done using ImageJ program.
Following, the present inventors examined whether the reduction of the tumor growth rate correlates with alterations expression and activation of the relevant proteins. To this end, lysates were prepared form the dissected tumors for protein levels evaluations. The tumor lysates were processed for western blot analysis (30 μg protein, 10% SDS polyacrylamide gel electrophoresis) and protein levels were determined using the indicated antibodies.

T1 sequence (P19338 whole entry): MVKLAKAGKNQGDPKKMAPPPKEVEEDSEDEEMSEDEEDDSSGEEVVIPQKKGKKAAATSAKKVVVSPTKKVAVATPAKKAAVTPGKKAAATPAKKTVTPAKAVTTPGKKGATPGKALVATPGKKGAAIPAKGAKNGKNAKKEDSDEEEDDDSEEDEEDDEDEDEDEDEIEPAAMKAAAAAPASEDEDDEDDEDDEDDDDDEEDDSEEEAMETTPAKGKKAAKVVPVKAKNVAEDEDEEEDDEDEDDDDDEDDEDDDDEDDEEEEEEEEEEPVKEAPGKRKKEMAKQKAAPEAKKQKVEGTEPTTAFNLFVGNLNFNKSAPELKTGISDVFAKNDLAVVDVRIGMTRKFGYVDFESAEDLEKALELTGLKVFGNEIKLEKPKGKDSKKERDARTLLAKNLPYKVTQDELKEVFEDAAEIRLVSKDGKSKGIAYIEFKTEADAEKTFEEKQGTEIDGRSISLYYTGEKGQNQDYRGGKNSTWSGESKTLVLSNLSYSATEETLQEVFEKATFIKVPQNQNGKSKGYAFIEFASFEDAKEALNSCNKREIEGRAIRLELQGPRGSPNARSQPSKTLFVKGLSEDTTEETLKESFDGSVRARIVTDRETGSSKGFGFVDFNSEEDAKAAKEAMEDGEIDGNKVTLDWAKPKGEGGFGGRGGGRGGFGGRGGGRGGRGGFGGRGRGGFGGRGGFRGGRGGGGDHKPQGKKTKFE

Question: Which results are given for “Myr-RRRHIVRKRTLRRLL-OH (Myristoyl-RRRHIVRKRTLRRLL-OH; SMILES CCCCCCCCCCCCCC(=O)N[C@@H](CCCNC(=N)N)C(=O)N[C@@H](CCCNC(=N)N)C(=O)N[C@@H](CCCNC(=N)N)C(=O)N[C@@H](Cc1c[nH]cn1)C(=O)N[C@H](C(=O)N[C@H](C(=O)N[C@@H](CCCNC(=N)N)C(=O)N[C@@H](CCCCN)C(=O)N[C@@H](CCCNC(=N)N)C(=O)N[C@H](C(=O)N[C@@H](CC(C)C)C(=O)N[C@@H](CCCNC(=N)N)C(=O)N[C@@H](CCCNC(=N)N)C(=O)N[C@@H](CC(C)C)C(=O)N[C@@H](CC(C)C)C(=O)O)[C@@H](C)O)C(C)C)[C@@H](C)CC) [myr-NLS]”?
Answer: nucleolin levels in tumors (nucleolin [1]): significant reduction; Akt levels in tumors (Akt): significant reduction; viability of Rat-1 fibroblast cells transformed with constitutive Ras (EJ) [2]: decreased viability; levels of phosphorylated EGFR (EGFR (ErbB1) [3]): reduced; levels of expression of nucleolin (nucleolin [4]): reduced the levels of expression; IC50 [5]: 7.6 µM; tumor growth (tumor size, tumor weight) [6]: significantly reduced tumor cell growth; also recorded: inhibits pancreatic tumor growth; ratio between EGFR and its phosphorylation state (activation of the EGFR) (EGFR (ErbB1) [7]; FIG. 10C): affected the activation of the EGFR; expression levels of EGFR in tumors (EGFR (ErbB1) [7]; FIGS. 10A-C): reduced; levels of phosphorylated EGFR in tumors (EGFR (ErbB1) [7]; FIGS. 10A-C): reduced
